Patent US4504462A, “Process for making a lyophilized product for use in skeletal imaging” (Mallinckrodt, Inc., priority 1982, dated 1985)

Experiment: skeletal imaging with scintillation camera
Type: in vivo, adult human subject
Experimental: An imaging agent is prepared using this kit by adding about 5 ml of a pertechnetate-Tc99m physiological saline with an activity of about 75 mCi, from a commercial technetium source. The kit is agitated until the kit components are dissolved. About 1 ml of the agent is slowly injected, over a period of about 30 seconds, into an adult human subject weighing about 75 kg.

[1] = component substituted in the kit of Example 1 or Example II, compared with the original kit

Row | Compound | results when substituted in the kit [1] | results when substituted in the kit (in vivo)
1 | O=P(O)(O)CP(=O)(O)O [MDP, methanediphosphonic acid, reference compound] | substantially similar results | 
2 | O=S(=O)([O-])[O-].[Sn+2] [stannous sulfate] | substantially similar results | 
3 | O=C1O[C@H]([C@@H](O)CCl)C([O-])=C1O.[Na+] [sodium-6-chloro-6-deoxyascorbate] | substantially similar results | 
4 | NC(P(=O)(O)O)P(=O)(O)O [methaneaminodiphosphonic acid, reference compound] | substantially similar results | 
5 | O=C1O[C@H]([C@@H](O)CCl)C(O)=C1O [6-chloro-6-deoxyascorbic acid] | substantially similar results | 
6 | NCC(O)(P(=O)(O)O)P(=O)(O)O [ethane-1-hydroxy-2-amino-1,1-diphosphonic acid, reference compound] | substantially similar results | 
7 | O=C1O[C@H]([C@@H](O)CO)C([O-])=C1O.[Na+] [sodium ascorbate] | substantially similar results | 
8 | O=C1CCC(O)=C1O [reductic acid] | substantially similar results | 
9 | stannous fluoride |  | substantially similar results
10 | O=P(O)(O)C(O)P(=O)(O)O [HMDP, methanehydroxydiphosphonic acid, reference compound] | substantially similar results | 
11 | CC1CC(O)=C(O)C1=O (stereo not drawn) [5-methyl reductic acid] | substantially similar results | 
12 | CN(C)C(P(=O)(O)O)P(=O)(O)O [methane-N,N-dimethylaminodiphosphonic acid, reference compound] | substantially similar results | 
13 | CNC(P(=O)(O)O)P(=O)(O)O [methane-N-methylaminodiphosphonic acid, reference compound] | substantially similar results | 
14 | O=C1O[C@H]([C@@H](O)CBr)C(O)=C1O [6-bromo-6-deoxyascorbic acid] | substantially similar results | 
15 | O=C1O[C@H]([C@@H](O)CBr)C([O-])=C1O.[Na+] [sodium-6-bromo-6-deoxyascorbate] | substantially similar results | 
16 | O=C1O[C@H]([C@H](O)CO)C(O)=C1O [erythorbic acid] | substantially similar results | 
17 | O=C([O-])[C@H](O)[C@@H](O)C(=O)[O-].[Sn+2] [stannous tartrate] | substantially similar results | 
18 | CC(O)(P(=O)(O)O)P(=O)(O)O [EHDP, ethane-1-hydroxy-1,1-diphosphonic acid, reference compound] | substantially similar results | 
